This is an account of results in publication PMC8287630 (Journal for Immunotherapy of Cancer, 2021).

Data set [1] can be described thus: Pharmacokinetic study in beagle dogs. As to conditions: dog, plasma, 30 mg/kg. It counts as in vivo. As to the method: (§1) Pharmacokinetic studies of free CHA and CHA-SME were performed using SD rats and beagle dogs. […] At 5, 15, 30 min, 1, 2, 4, 6, and 8 hours, approximately 0.2 mL of blood was collected from the orbital into an anticoagulant tube and centrifuged at 4500 rpm for 10 min to separate the plasma. All plasma samples were stored frozen at –80°C until LC-MS/MS analysis (TSQ Quantum Access MAX; Thermo Fisher Scientific, Waltham, MA, USA).

In data set [2] the test system is several human cancer cell lines. The conditions noted are these: cited from earlier work.
Data set [3] is described as follows: Pharmacokinetic study in rats. It is filed as in vivo. The conditions noted are these: male, SD, rat, plasma, po, 30 mg/kg. As to the method: as §1
Another data set deals with G422 glioma. Put plainly: In vivo antitumor efficacy, subcutaneous G422 glioma model. Details: species or system ICR mice. As to conditions: 14 days; CHA 20 mg/kg i.p., CHA-SME 35 mg/kg p.o. On the procedure:
A subcutaneous glioma tumor model was established in female ICR mice, as mentioned above. […] The positive control group was orally administered TMZ (50 mg/kg) for 5 days. The blank CHA-SME group was orally administered with blank CHA-SME for 14 days. At the end of the experiment, all mice were euthanized, and the tumors were collected, weighed, and photographed. […] The positive control group was orally administered TMZ (50 mg/kg) for 5 days. […] The CHA-SME group was orally administered CHA-SME (35 mg/kg) for 14 days. At the end of the experiment, all mice were euthanized, and the tumors were collected, weighed, and photographed.

A further data set relates to DCs and T cells. Put plainly: Immunomodulatory effects in vivo (immunophenotype of DCs and T cells, cytokines). Also noted: species or system mice. The conditions noted are these: CHA-SME 35 mg/kg; versus control treatment. On the procedure: The in vivo immunomodulatory effects of CHA-SME were evaluated by analyzing the immunophenotype of LYM and cytokine production. LYM (DCs and T cells) infiltrated into the blood, tumor, and other important immune organs (MLNs and spleen) were quantitatively analyzed by flow cytometry. Fresh tumors were cut into small pieces and digested at 37°C for 40 min. Fresh MLNs and spleens were cut into small pieces and ground into single-cell suspensions. The cells were collected, washed, and incubated with different fluorescein-conjugated antibodies. The cell suspensions were filtered through 400-mesh sieves after two washes and analyzed by flow cytometry ([…] Biosciences, San Diego, California, USA). For immunophenotype analysis of T cells, CD45 +CD3+CD44+CD62L+cells and CD45 +CD3+CD44+CD62 L-cells were considered to be central memory T cells (TCM) and effector memory T cells (TEM), respectively. For DC maturation analysis, the expression levels of MHC I, CD40, CD80, and CD86 on DCs were examined. Different cytokines (IFN-γ, tumor necrosis factor α (TNF-α), and IL-10) in tumors, MLNs, spleens, and blood were quantitatively determined using bead-based LEGENDplex kits following the manufacturer's protocol.

The nature of data set [4]: In vivo safety evaluation (body weight, hematology, serum biochemistry, histopathology). Details: species or system mice. The conditions noted are these: for histopathology of heart, liver, spleen, lung and kidney: HE staining, versus control group; for animal behavior and body weight after administration: tumor-bearing mice. On the procedure:
The in vivo safety of CHA-SME was evaluated based on body weight, hematological examination, and histopathological examination in mice. Body weight was monitored throughout the experiment. At the end of the in vivo antitumor experiment, peripheral blood was collected for hematological examination using an automatic hematology analyzer (MEK-7222 K; Nihon Kohden, Tokyo, Japan). Additionally, the serum was separated to detect […] (ALT), […] (AST), blood urea nitrogen (BUN), and creatinine (CRE) to evaluate hepatic and renal functions using an automatic biochemical analyzer (Accute TBA-40FR; TOSHIBA, Kawasaki, Japan). Heart, liver, spleen, lung, kidney, stomach, small intestine, and MLNs were collected, fixed in 4% PFA, and subjected to histopathological examination using HE staining.

The format of data set [5] is in vivo. The conditions noted are these: mice, oral 1 mg/kg, 30 min; figure 5C. As to the method:
To evaluate the uptake of CHA-SME in the intestinal tissues and MLNs, Cou-6-labeled CHA-SME were orally administered to mice at 1 mg/kg. Thirty minutes later, the mice were sacrificed and intestinal segments (including duodenum, jejunum, ileum, and colon,~1 cm each) and MLNs were surgically collected, placed in embedding compound, frozen in liquid nitrogen, and dissected. The slices were fixed with 4% PFA, stained with TRITC phalloidin and DAPI, and imaged using CLSM. Additionally, MLNs were ground into single-cell suspensions and the fluorescence intensity was determined by flow cytometry.
To investigate the lymphatic transport of CHA-SME in vivo, mice were i.p. administered 3.0 mg/kg cycloheximide to block chylomicron flow.[37 38] One-hour postinjection, DiR-labeled or Cou-6-labeled CHA-SME was orally administered at 1.0 mg/kg. The mice were examined as described above.

In the next data set the test system is Caco-2 cell monolayers. Put plainly: Transport within Caco-2 cell monolayers (CLSM). As to conditions: 4 hours incubation. It counts as cell-based, human. On the procedure: To establish an in vitro Caco-2 cell monolayer model, Caco-2 cells were plated in a 12-well Transwell plate with a 0.4 µm pore polycarbonate membrane insert (Corning, Corning, New York, USA). A total of 0.5 mL of cell culture medium containing 2×10^5 cells was added in the upper compartment of each Transwell insert, and 1.5 mL of cell culture medium was added in the lower compartment. The culture medium in both compartments was changed every other day in the initial 14 days and every day in the following 7 days. After 21 days of culture, transepithelial electrical resistance (TEER) was measured using Millicell-ERS (Millipore, Billerica, Massachusetts, USA) to monitor cell monolayer integrity. A TEER value exceeding 800 Ω was selected for subsequent transepithelial transport study of CHA-SME.
For the transepithelial transport study of CHA-SME, Caco-2 cell monolayers cultured in Transwell plates were incubated with Cou-6-labeled CHA-SME for 4 hours at 37°C. Then, the cells were washed thrice with cold PBS, and the polycarbonate membrane with cultured cells was carefully cut from the insert. After fixation with 4% PFA and staining with TRITC phalloidin and DAPI, the excised membrane was placed in a glass slide and examined by CLSM.

SMILES strings stand for the structures.

For the compound `O=C(/C=C/c1ccc(O)c(O)c1)O[C@@H]1C[C@](O)(C(=O)O)C[C@@H](O)[C@H]1O` [CHA, Chlorogenic acid], the bioavailability (as a rule, the share of a dose that reaches the circulation, judged against a reference dose that is usually intravenous) in data set [1] (oral, read-out: oral absolute bioavailability) came to 5.85%. For the same compound, the AUC – broadly, concentration integrated over time – in data set [1] (po, read-out: AUC Mean±SD) was found to be 692 ± 179 ng·h/mL. In data set [2], the “effective dose for inhibition of cell proliferation / induction of apoptosis” value was “higher than 100 µM”. Further, the AUC in data set [3] is 35.8 ± 10.9 ng·h/mL. In addition, the tumor growth result in the data set with G422 glioma is “able to inhibit tumor growth”. The “proportion of infiltrating CD3+, CD4+ and CD8+ T cells in brain glioma tissues” value with DCs and T cells is listed as “no significant difference”. Also, in data set [4], the “histopathology of heart, liver, spleen, lung and kidney” value is recorded as “no obvious organ lesion”; the “animal behavior and body weight after administration” value is reported as “tolerated the regimens well”.

As for `CCN(CC)c1ccc2cc(-c3nc4ccccc4s3)c(=O)oc2c1` [Cou-6, Coumarin-6], the “percentage of Cou-6-positive lymphocytes in MLNs” value in data set [5] was found to be 7.2%. Moreover, the “green fluorescence within Caco-2 cell monolayers” value in the data set on Caco-2 cell monolayers is on record as “negligible green fluorescence”.

For `Cn1nnc2c(C(N)=O)ncn2c1=O` [TMZ, temozolomide], in data set [4], the “histopathology of heart, liver, spleen, lung and kidney” value was “a certain degree of fragmentation and pathological changes in the heart and spleen”; the “animal behavior and body weight after administration” value was “marked weight loss and sparse hair”.
